Measurements: PMC5587642, “A Novel Benzocoumarin-Stilbene Hybrid as a DNA ligase I inhibitor with in vitro and in vivo anti-tumor activity in breast cancer models” (Scientific Reports, 2017)

Tests used:
[1] = In-vivo pharmacokinetic study; design: species or system Sprague Dawley (SD) rats; conditions: rat
Description: Male Sprague Dawley (SD) rats weighing 200–220 g were obtained from the Laboratory of Animal Division of CSIR-CDRI (Lucknow, India). Animals were kept in well ventilated cages in hygienic conditions at room temperature (24 ± 2 °C), 40–60% relative humidity and 12 h light-dark cycle. The animals were acclimatized for a minimum period of 3 days prior to the experiments. Pharmacokinetic study was conducted according to protocol approved by the CSIR-CDRI Institutional Animal Ethic Committee (IAEC approval no. IAEC/2012/91). Compound 19 was dissolved in DMSO:Poly Ethylene Glycol-400: 0.9%w/v saline in the ratio of 1:1:2 and was intravenously administered at the dose of 5 mg/kg to each rat (n = 6). The rats were kept on fasting overnight with water alone for oral pharmacokinetic studies. Compound 19 was dissolved in DMSO:Poly Ethylene Glycol-400: 0.5% w/v Sodium carboxymethyl cellulose in TDW in the ratio of 3:1:4 and was orally administered at the dose of 50 mg/kg to each rat (n = 6). Blood samples were collected in microcentrifuge tubes for each time point at 0.083, 0.167, 0.333, 0.5, 0.75, 1.0, 2.0, 4.0, 6.0, 8.0, 10.0, 12.0, 24.0, 48.0 and 72 h post dosing. The blood samples were collected after light ether anesthesia from the retro-orbital plexus of rats using heparin as anticoagulant. Plasma was separated after centrifugation at 5000 rpm for 10 min and all the samples were stored at −80 °C until analysis. Rat plasma samples were processed using liquid-liquid extraction. 100 µL aliquot of plasma mixed with 150 µL of acetonitrile and 100 µL of 5 mM NaHCO3 solution was added and vortexed to mix well. In each sample, 2.5 mL of tert-Butyl methyl ether (TBME) (extraction solvent) was added and vortexed for 10 min at 2500 rpm on vibramax (Heidolph, Schwabach, Germany) followed by centrifugation (Eppendorf, Hamburg, Germany) at 5,000 rpm for 5 min. An aliquot of 2.0 mL of supernatant organic layer was separated and evaporated on vacuum concentrator (Thermo scientific, Asheville, USA) to complete dryness. The residue was reconstituted with 100 µL of mobile phase and injected into the LC-MS/MS system for analysis. The plasma samples ([…]) were assayed along with calibration standards and QC samples and the levels of compound 19 was calculated using Analyst software. The pharmacokinetic profile and parameters were evaluated by non-compartmental model approach using Pheonix 6.3 WinNonlin (Pharsight corporation, USA) including t1/2, elimination half-life; Cmax, maximum plasma concentration; tmax, time to reach maximum plasma concentration; AUC0-t, area under concentration curve from zero to last time point.

MDA-MB-231 cells = test: Cell cycle distribution analysis (PI, FACS); format: cell-based, human; conditions: 12 µM
Description: For the study of cell cycle distribution, cells were synchronized by serum starvation for 48 h and then grown in serum containing media in the presence or absence of 12 µM compound 19, after 0, 24 and 48 h, cells were harvested, washed twice with cold PBS and fixed with 70% ethanol. The fixed cells were washed with chilled PBS and then stained with 50 μg/mL of Propidium iodide. Cell cycle distribution was analyzed by using FACS-Calibur (BD Biosciences, San Diago, CA).

[2] = tested on: HEK-293 (Non-cancerous cell); test: MTT cell viability assay; format: cell-based
Description: (§1) Cell viability assay was performed as described previously. Briefly, cells were seeded in 96 well plates and treated with different concentrations of compound 19 for 48 h. After drug treatment, MTT reagent was added in each well of the plate and cell viability was quantified by measuring the absorbance at 590 nm.

DLD1 (Colon) = test: MTT cell viability assay; format: cell-based
Description: as §1

A172 (Brain) = test: MTT cell viability assay; format: cell-based
Description: as §1

[3] = tested on: 4T1 (Mouse Breast Cancer); test: MTT cell viability assay; format: cell-based
Description: as §1

SK-OV-3 (Ovary) = test: MTT cell viability assay; format: cell-based
Description: as §1

A549 (Lung) = test: MTT cell viability assay; format: cell-based
Description: as §1

PLC/PRF/5 (Liver) = test: MTT cell viability assay; format: cell-based
Description: as §1

PANC-1 (Pancreas) = test: MTT cell viability assay; format: cell-based
Description: as §1

[4] = male, Sprague Dawley, plasma, iv, I.V route, 5 mg/kg
[5] = male, Sprague Dawley, plasma, oral route, 50 mg/kg
[6] = 0 h (treated and untreated cells)

COc1cc(/C=C/c2cc(=O)oc3c2ccc2ccccc23)cc(OC)c1 [Compound 19, (E)-4-(3,5-dimethoxystyryl)-2H-benzo[h]chromen-2-one]
Cmax ([1]; male, Sprague Dawley, iv, I.V route, 5 mg/kg, plasma concentration at 5 min): 325 ± 102 ng/mL | AUC(0-t) [1, 4]: 457 ± 131 ng·h/mL | half-life [1, 4]: 19.2 ± 11.8 h | bioavailability ([1]; male, Sprague Dawley, plasma, oral 50 mg/kg versus I.V 5 mg/kg, read-out: Bioavailability (%F)): 7.85 ± 0.65% | AUC(0-t) [1, 5]: 342 ± 18.6 ng·h/mL | Cmax [1, 5]: 13.4 ± 2.92 ng/mL | Tmax [1, 5]: 0.5 h | half-life [1, 5]: 22.8 ± 4.69 h | Time up to which plasma concentrations are detectable ([1]; after oral dosing, 50 mg/kg): up to 72 h | Cells in G0/G1 phase (MDA-MB-231 cells; [6]): 75.12 ± 2.23% | Cells in G2/M phase (MDA-MB-231 cells; [6]): 8.71 ± 1.57% | Cells in S-phase (MDA-MB-231 cells; [6]): 16.18 ± 0.65% | Cells in G0/G1 phase (MDA-MB-231 cells; 24 h): 57.61 ± 0.1% | Cells in G2/M phase (MDA-MB-231 cells; 24 h): 21.48 ± 2.50% | Cells in S phase (MDA-MB-231 cells; 24 h): 20.91 ± 2.61% | Cells in G0/G1 phase (MDA-MB-231 cells; 48 h): 33.78 ± 4.77% | Cells in G2/M phase (MDA-MB-231 cells; 48 h): 32.53 ± 0.58% | Cells in S phase (MDA-MB-231 cells; 48 h): 33.7 ± 4.2% | % Inhibition of cell viability at 10 µM, HEK-293 (Non-cancerous cell) [2]: 37.83% | % Inhibition of cell viability at 10 µM, DLD1 (Colon) (DLD1 (Colon)): 42.64% | % Inhibition of cell viability at 10 µM, A172 (Brain) (A172 (Brain)): 43.71% | % Inhibition of cell viability at 10 µM, 4T1 (Mouse Breast Cancer) ([3]; 10 µM): 53.18% | IC50 ([3]; Mus musculus, MTT, 48 h): 11.6 ± 1.7 µM | % Inhibition of cell viability at 10 µM, SK-OV-3 (Ovary) (SK-OV-3 (Ovary)): NA (NA= Not active (% Inhibition <30%)) | % Inhibition of cell viability at 10 µM, A549 (Lung) (A549 (Lung)): NA (NA= Not active (% Inhibition <30%)) | % Inhibition of cell viability at 10 µM, PLC/PRF/5 (Liver) (PLC/PRF/5 (Liver)): NA (NA= Not active (% Inhibition <30%)) | % Inhibition of cell viability at 10 µM, PANC-1 (Pancreas) (PANC-1 (Pancreas)): 50.32%
